These are literature values, as cited in article PMC4382562 (Current Chemical Genomics and Translational Medicine, 2015).

By IC50 is commonly meant the midpoint of a concentration-inhibition curve.

The series relates to iCell Neurons. As to conditions: read-out: Neurite outgrowth IC50 (high content image-based analysis), previously reported.

`CCCCCC[C@H]1C(=O)O[C@H](C)[C@H](NC(=O)c2cccc(NC=O)c2O)C(=O)O[C@@H](C)[C@@H]1OC(=O)CC(C)C` [Antimycin A]: the IC50 is ~13 µM.
Regarding `CN[C@@H]1C[C@H]2O[C@@](C)([C@@H]1OC)n1c3ccccc3c3c4c(c5c6ccccc6n2c5c31)C(=O)NC4` [Staurosporine], the IC50 was ~0.9 µM.
